A word on the Ki: it is a dissociation constant, usually derived from enzyme kinetics or from competition with a known ligand. As usually defined, the AC50 is the concentration giving half of the maximal activity seen.

The values that follow come from ChEMBL document CHEMBL1201862, “PubChem BioAssay data set” (2004).

The source made the active and inactive calls. A value given as a limit tells only on which side of the number the result lay.

The target of assay [1] is Mitogen-activated protein kinase kinase kinase kinase 2 (Homo sapiens, UniProt Q12851). The assay is classed as functional.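 Also: measured as one member of a kinome-wide kinase panel, with MAP4K2 as the panel entry.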
Assay [2] has as its target Dual specificity protein kinase CLK4 (Homo sapiens, UniProt Q9HAZ1). In kind it is functional.
Assay [3] deals with Peroxisome proliferator-activated receptor gamma/Nuclear receptor coactivator 1 (Homo sapiens, UniProt P37231). Nature of the assay: TR-FRET dose response biochemical High Throughput Screening assay for agonists of the steroid receptor coactivator 1 (SRC-1) recruitment by the peroxisome proliferator-activated receptor gamma (PPAR gamma): non-selective agonists. [Related pubchem assays (depositor defined):AID1300, AID1808, AID504735, AID631]. The assay is classed as protein assay. For orientation: In TR-FRET formats the signal depends on donor and acceptor labels being close together.

Assay [4] deals with Peroxisome proliferator-activated receptor gamma/Nuclear receptor coactivator 3 (Homo sapiens, UniProt P37231). Nature of the assay: TR-FRET dose response biochemical High Throughput Screening assay for agonists of the steroid receptor coactivator 3 (SRC-3) recruitment by the peroxisome proliferator-activated receptor gamma (PPAR gamma): non-selective agonists. [Related pubchem assays: 1301 (Confirmation screen.), 1048 (Primary screen.)]. The assay is classed as functional.

Assay [5] has as its target Peroxisome proliferator-activated receptor gamma/Nuclear receptor coactivator 2 (Homo sapiens, UniProt P37231). Briefly: TR-FRET dose response biochemical High Throughput Screening assay for agonists of the steroid receptor coactivator 2 (SRC-2) recruitment by the peroxisome proliferator-activated receptor gamma (PPAR gamma): non-selective agonists. [Related pubchem assays: 1297, 1032 ]. The assay is classed as functional.

The target of assay [6] is Botulinum neurotoxin type A (Clostridium botulinum (strain Hall / ATCC 3502 / NCTC 13319 / Type A), UniProt P0DPI1). Nature of the assay: High-throughput multiplex microsphere dose response for inhibitors of toxin protease, specifically Botulinum neurotoxin light chain A protease, compounds from Cherry Pick 02. In kind it is functional. Particulars: read-out: EC50_MICROM.

Assay [7] addresses Botulinum neurotoxin type F (Clostridium botulinum, UniProt P30996). Briefly: High-throughput multiplex microsphere dose response for inhibitors of toxin protease, specifically Botulinum neurotoxin light chain F protease, compounds from Cherry Pick 02. In kind it is functional. To be noted: read-out: EC50_MICROM.
Assay [8] addresses Protein S100-A4 (Homo sapiens, UniProt P26447). Briefly: human S100A4 peptide interaction inhibition curves – biochemical, fluorescence polarization, cherry-picked hits, dose response (AID 687001). The assay is classed as functional. For orientation: Fluorescence polarisation rises when a labelled molecule tumbles more slowly, as on binding a larger partner.
Assay [9] concerns the target Neuropeptides B/W receptor type 1 (Homo sapiens, UniProt P48145). Nature of the assay: human NPBW1 receptor blockade, IC50 – cell-based, fluorescence, dose response, set 5, late-stage follow-up (AID 588566). In kind it is functional.
In assay [10] the target is Melanin-concentrating hormone receptor 1 (Homo sapiens, UniProt Q99705). Briefly: Late-stage fluorescence-based counterscreen for antagonists of the G-protein coupled receptor 7 (GPR7): cell-based dose response assay to identify antagonists of the melanin-concentrating hormone receptor 1 (MCHR1) Set 5. The assay is classed as functional. Background: The purpose of a counterscreen is to sort out artefacts and off-target activity.

The target in assay [11] is T1, DNA dC->dU-editing enzyme APOBEC-3A (Homo sapiens, UniProt P31941). Nature of the assay: A3A deaminase inhibition for selectivity – biochemical, dose response (AID 504722). The assay is classed as functional.
Assay [12] addresses T2, DNA dC->dU-editing enzyme APOBEC-3G (Homo sapiens, UniProt Q9HC16). Briefly: Dose Response confirmation of small molecule APOBEC3G DNA Deaminase Inhibitors via a fluorescence-based single-stranded DNA deaminase assay. [Related pubchem assays (depositor defined):AID493012, AID493028]. The assay is classed as functional.
The target in assay [13] is T1, DNA dC->dU-editing enzyme APOBEC-3A. Nature of the assay: SAR analysis of small molecule inhibitors of APOBEC3A DNA Deaminase via a fluorescence-based single-stranded DNA deaminase assay - Set 2. The assay is classed as functional. To be noted: read-out: IC50_Mean.
In assay [14] the target is T2, DNA dC->dU-editing enzyme APOBEC-3G. Briefly: SAR analysis of small molecule inhibitors of APOBEC3G DNA Deaminase via a fluorescence-based single-stranded DNA deaminase assay - Set 2. The assay is classed as functional. To be noted: read-out: IC50_Mean.
The target in assay [15] is T3, Mitochondrial peptide methionine sulfoxide reductase (Bos taurus, UniProt P54149).
T3 sequence (P54149 whole entry): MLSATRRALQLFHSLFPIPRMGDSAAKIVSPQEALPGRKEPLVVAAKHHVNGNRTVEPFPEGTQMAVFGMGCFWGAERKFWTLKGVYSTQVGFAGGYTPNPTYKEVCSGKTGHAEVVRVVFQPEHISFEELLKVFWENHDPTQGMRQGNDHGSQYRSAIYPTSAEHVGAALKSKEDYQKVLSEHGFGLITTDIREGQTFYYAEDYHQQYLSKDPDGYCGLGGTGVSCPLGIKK
Briefly: Absorbance-based biochemical high throughput dose response assay for activators of Methionine sulfoxide reductase A (MsrA). In kind it is functional.

The target in assay [16] is T2, DNA dC->dU-editing enzyme APOBEC-3G. Briefly: inhibition of APOBEC3G ssDNA deamination – biochemical, fluorescence, single-stranded DNA substrate, SAR follow-up (AID 602136). In kind it is functional. To be noted: read-out: IC50_Mean.
Assay [17] has as its target T1, DNA dC->dU-editing enzyme APOBEC-3A. Briefly: SAR analysis of small molecule inhibitors of APOBEC3A DNA Deaminase via a fluorescence-based single-stranded DNA deaminase assay. In kind it is functional. To be noted: read-out: IC50_Mean.

T2 sequence (Q9HC16 whole entry): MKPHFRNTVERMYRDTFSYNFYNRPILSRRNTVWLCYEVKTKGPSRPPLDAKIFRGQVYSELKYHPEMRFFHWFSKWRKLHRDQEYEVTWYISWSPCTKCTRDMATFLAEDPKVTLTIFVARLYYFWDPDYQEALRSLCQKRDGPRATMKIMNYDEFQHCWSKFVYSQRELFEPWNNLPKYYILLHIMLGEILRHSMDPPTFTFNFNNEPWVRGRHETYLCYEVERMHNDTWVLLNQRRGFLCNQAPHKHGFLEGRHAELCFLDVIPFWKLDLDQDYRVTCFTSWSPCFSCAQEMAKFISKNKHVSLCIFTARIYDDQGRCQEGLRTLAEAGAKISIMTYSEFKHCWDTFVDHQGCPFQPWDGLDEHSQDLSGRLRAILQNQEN
T1 sequence (P31941 whole entry): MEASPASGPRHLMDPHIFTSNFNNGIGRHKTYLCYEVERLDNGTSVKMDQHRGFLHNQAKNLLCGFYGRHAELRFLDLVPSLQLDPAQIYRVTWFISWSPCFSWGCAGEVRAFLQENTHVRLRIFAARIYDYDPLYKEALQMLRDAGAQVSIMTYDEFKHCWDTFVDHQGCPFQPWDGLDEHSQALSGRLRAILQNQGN
Dual specificity protein kinase CLK4, sequence (Q9HAZ1 whole entry): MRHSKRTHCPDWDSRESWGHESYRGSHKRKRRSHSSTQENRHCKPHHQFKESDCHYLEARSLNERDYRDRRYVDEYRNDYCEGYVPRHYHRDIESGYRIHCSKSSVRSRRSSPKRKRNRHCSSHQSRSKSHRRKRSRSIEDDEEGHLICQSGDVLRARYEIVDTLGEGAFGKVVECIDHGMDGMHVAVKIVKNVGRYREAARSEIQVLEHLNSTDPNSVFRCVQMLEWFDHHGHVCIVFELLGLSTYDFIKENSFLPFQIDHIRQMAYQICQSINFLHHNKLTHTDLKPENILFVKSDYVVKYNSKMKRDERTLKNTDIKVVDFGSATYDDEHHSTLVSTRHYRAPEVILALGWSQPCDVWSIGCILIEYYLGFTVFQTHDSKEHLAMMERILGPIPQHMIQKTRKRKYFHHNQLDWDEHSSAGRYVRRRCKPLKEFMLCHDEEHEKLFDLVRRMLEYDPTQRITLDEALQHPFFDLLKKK
Mitogen-activated protein kinase kinase kinase kinase 2, sequence (Q12851 whole entry): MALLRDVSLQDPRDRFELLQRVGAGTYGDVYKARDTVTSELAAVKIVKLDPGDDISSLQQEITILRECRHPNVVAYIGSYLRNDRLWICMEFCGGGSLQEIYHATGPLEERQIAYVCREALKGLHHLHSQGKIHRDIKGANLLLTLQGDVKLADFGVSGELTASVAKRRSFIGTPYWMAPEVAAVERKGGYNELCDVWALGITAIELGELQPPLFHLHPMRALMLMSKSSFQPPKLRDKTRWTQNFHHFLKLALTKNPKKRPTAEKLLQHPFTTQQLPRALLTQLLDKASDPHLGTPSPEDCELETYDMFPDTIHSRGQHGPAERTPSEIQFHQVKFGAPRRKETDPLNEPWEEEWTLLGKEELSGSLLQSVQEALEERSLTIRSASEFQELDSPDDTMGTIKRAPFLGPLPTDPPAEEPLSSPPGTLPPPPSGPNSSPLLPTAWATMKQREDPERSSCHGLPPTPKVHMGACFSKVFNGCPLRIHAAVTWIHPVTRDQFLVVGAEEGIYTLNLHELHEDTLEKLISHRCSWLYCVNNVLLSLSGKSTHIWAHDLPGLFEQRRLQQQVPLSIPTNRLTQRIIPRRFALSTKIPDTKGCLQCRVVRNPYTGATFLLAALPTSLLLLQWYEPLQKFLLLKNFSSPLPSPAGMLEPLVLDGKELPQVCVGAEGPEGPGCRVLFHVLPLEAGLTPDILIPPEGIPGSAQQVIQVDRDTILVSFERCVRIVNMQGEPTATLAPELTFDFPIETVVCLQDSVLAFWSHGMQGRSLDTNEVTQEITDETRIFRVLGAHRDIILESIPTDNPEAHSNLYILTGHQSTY
Peroxisome proliferator-activated receptor gamma/Nuclear receptor coactivator 2, sequence (P37231 whole entry): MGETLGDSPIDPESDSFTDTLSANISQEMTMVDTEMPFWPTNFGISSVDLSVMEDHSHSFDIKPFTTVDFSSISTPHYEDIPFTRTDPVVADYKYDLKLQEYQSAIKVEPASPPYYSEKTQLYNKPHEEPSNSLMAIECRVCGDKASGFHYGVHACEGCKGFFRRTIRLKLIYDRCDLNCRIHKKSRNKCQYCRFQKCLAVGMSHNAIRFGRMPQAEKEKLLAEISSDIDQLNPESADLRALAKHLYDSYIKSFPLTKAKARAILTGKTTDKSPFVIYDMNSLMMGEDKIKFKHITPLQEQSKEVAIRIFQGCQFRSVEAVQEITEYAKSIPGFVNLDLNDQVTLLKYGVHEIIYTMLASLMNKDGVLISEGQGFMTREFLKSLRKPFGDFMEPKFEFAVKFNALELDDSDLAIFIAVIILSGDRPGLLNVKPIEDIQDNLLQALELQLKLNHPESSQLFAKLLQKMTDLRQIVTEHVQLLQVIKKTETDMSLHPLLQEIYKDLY
Peroxisome proliferator-activated receptor gamma/Nuclear receptor coactivator 2, sequence (Q15596 whole entry, further chain): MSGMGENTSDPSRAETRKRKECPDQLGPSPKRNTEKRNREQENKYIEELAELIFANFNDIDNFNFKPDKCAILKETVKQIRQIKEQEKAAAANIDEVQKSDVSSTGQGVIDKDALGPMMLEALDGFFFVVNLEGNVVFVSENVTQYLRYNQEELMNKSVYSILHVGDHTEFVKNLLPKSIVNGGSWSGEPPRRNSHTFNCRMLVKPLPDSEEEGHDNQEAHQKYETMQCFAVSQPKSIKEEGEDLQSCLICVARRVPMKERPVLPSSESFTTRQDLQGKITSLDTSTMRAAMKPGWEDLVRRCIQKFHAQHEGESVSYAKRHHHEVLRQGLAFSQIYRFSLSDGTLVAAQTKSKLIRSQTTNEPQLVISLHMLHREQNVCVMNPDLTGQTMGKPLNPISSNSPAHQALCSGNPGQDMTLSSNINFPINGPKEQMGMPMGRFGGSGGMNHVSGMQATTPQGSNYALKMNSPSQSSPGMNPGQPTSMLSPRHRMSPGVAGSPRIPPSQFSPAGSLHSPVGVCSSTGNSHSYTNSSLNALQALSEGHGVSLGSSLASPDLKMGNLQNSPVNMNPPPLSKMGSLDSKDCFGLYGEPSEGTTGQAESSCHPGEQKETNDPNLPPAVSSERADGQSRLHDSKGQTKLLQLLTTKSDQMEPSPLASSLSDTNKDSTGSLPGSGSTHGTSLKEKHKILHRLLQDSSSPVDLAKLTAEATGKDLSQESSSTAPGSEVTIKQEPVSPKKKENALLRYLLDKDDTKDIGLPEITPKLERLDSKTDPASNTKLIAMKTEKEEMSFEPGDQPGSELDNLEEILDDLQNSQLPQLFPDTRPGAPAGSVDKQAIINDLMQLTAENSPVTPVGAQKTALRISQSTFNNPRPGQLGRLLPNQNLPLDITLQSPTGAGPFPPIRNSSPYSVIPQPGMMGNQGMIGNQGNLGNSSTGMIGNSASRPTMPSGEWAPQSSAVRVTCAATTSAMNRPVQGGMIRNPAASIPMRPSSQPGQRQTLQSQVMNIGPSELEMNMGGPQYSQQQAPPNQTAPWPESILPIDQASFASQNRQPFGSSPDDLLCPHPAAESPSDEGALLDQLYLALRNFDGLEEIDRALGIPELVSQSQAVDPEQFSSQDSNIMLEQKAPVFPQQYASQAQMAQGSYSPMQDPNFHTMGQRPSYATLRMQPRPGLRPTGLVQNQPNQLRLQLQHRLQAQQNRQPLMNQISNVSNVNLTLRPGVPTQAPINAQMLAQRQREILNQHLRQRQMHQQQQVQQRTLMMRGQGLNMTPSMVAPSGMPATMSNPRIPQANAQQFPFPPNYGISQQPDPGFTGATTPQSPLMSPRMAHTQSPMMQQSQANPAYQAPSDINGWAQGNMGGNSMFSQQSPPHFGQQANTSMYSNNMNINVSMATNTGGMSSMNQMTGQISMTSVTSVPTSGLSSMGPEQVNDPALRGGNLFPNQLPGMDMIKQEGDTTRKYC
Melanin-concentrating hormone receptor 1, sequence (Q99705 whole entry): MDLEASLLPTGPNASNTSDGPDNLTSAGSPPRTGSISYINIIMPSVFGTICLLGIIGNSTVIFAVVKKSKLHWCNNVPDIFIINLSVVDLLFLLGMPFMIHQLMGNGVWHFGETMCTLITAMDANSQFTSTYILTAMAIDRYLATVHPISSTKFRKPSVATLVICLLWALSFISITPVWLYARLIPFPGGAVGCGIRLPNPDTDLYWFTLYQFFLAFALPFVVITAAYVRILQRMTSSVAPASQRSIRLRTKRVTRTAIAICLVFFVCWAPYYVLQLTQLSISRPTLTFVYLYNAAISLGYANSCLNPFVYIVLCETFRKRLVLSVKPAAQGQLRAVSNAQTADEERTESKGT
Protein S100-A4, sequence (P26447 whole entry): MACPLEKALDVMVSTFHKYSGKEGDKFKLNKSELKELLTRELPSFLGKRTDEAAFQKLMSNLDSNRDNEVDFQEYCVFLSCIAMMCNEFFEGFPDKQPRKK
Neuropeptides B/W receptor type 1, sequence (P48145 whole entry): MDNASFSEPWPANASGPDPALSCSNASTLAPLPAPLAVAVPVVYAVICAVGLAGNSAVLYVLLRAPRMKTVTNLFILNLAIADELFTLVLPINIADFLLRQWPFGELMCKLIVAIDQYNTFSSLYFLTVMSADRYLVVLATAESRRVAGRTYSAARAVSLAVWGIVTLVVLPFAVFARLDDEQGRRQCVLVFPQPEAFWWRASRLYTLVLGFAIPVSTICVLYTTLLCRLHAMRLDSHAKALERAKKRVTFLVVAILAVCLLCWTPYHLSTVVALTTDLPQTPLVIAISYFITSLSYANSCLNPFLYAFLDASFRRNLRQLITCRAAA

Turning to `O=C1CC(c2ccc(Cl)cc2Cl)Cc2[nH]c3ccc(Cl)cc3c(=O)c21` (configuration not stated), the values for the Ki in [1] and in assay [2] were 5.01 µM (active) and 7.94 µM (active), respectively.
As for `Cc1cc2ccccc2n1CCNC(=O)c1ccc(S(=O)(=O)N2CCCCC2)cc1`, the EC50 is 5.91 µM (active) in assay [3]; 13.6 µM (not active) in [4]; 6.53 µM (active) in assay [5]; 1 µM (active) in assay [6]; > 20 µM (inactive) in assay [7]. Further, in assay [8], the AC50 was 6.69 µM (active).
As for `COc1ccc(Oc2c(Cl)cnn(Cc3ccccc3C#N)c2=O)cc1`, the IC50 in assay [9] is 1.45 µM (active); in [10], 11.4 µM (inactive).
`Sc1nnc(NCCc2ccccc2)s1`: the IC50 in assay [11] is > 100 µM (inactive); in assay [12] it was 1.2 µM (active); in assay [13], > 99 µM (inactive); in assay [14], 0.695 µM (active); in [16], 0.835 µM (active); in [17] it was > 99 µM (inactive). Also, in assay [15], the EC50 was > 104 µM (inactive).
